Experimental data reported in ChEMBL document CHEMBL1144235, “Aminostyrylbenzofuran derivatives as potent inhibitors for Abeta fibril formation” (Bioorg Med Chem Lett, 2008).

Target: Amyloid-beta precursor protein (Homo sapiens, UniProt P05067)
Test: Inhibition of amyloid beta42 fibril formation by thioflavin T formation

Sequence of Amyloid-beta precursor protein (P05067 whole entry): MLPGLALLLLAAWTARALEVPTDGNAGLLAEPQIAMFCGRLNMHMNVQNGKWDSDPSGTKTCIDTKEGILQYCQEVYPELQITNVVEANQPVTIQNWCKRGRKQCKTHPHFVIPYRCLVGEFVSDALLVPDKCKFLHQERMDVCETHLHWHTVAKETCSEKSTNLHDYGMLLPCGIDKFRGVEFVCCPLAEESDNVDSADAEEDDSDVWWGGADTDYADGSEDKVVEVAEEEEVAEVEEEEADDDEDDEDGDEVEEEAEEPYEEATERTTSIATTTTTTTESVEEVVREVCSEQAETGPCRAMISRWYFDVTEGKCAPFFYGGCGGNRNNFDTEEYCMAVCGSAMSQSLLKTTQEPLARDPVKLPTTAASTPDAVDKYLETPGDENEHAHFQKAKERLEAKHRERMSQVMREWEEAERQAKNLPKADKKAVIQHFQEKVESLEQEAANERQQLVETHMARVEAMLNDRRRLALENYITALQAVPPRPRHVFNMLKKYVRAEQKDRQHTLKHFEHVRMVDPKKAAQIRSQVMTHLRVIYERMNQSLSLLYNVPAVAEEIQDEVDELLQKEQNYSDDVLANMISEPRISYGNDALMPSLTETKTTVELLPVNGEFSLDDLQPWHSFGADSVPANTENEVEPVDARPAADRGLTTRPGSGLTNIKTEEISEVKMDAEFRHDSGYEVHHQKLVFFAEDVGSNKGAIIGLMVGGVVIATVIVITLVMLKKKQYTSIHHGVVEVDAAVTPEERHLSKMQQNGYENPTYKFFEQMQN

COc1ccc2oc(/C=C/c3ccc(N(C)C)cc3)cc2c1
IC50: 810 nM

CN(C)c1ccc(/C=C/c2cc3ccc(O)cc3o2)cc1
IC50: 3620 nM

CN(C)c1ccc(/C=C/c2cc3cc(O)ccc3o2)cc1
IC50: 160 nM

COc1ccc2oc(/C=C/c3ccc(N)cc3)cc2c1
IC50: 820 nM

CN(C)c1ccc(/C=C/c2cc3ccc(Br)cc3o2)cc1
IC50: 1340 nM

Cc1ccc2oc(/C=C/c3ccc(N(C)C)cc3)cc2c1
IC50: 130 nM

CN(C)c1ccc(/C=C/c2cc3ccc(F)cc3o2)cc1
IC50: 2190 nM

CN(C)c1ccc(/C=C/c2cc3ccccc3o2)cc1
IC50: 2300 nM

COc1ccc2cc(/C=C/c3ccc(N)cc3)oc2c1
IC50: 5440 nM

CNc1ccc(/C=C/c2cc3cc(OC)ccc3o2)cc1
IC50: 80 nM

CN(C)c1ccc(/C=C/c2cc3ccc(I)cc3o2)cc1
IC50: 2800 nM

COc1ccc2oc(/C=C/c3ccc(N(C)C)c(OC)c3)cc2c1
IC50: 160 nM

CN(C)c1ccc(/C=C/c2cc3cc(I)ccc3o2)cc1
IC50: 170 nM

CNc1ccc(/C=C/c2cc3cc(O)ccc3o2)cc1
IC50: 2160 nM

CN(C)c1ccc(/C=C/c2cc3ccc(Cl)cc3o2)cc1
IC50: 3210 nM

CN(C)c1ccc(/C=C/c2cc3cc(F)ccc3o2)cc1
IC50: 1980 nM

COc1ccc2cc(/C=C/c3ccc(N(C)C)c(OC)c3)oc2c1
IC50: 530 nM

Cc1ccc2cc(/C=C/c3ccc(N(C)C)cc3)oc2c1
IC50: 3440 nM

CNc1ccc(/C=C/c2cc3ccc(OC)cc3o2)cc1
IC50: 800 nM

CN(C)c1ccc(/C=C/c2cc3cc(Cl)ccc3o2)cc1
IC50: 200 nM

CN(C)c1ccc(/C=C/c2cc3cc(Br)ccc3o2)cc1
IC50: 470 nM

Nc1ccc(/C=C/c2cc3cc(O)ccc3o2)cc1
IC50: 2950 nM

COc1ccc2cc(/C=C/c3ccc(N(C)C)cc3)oc2c1
IC50: 70 nM
